These substances were tested on C57BL/6 mice (assay: In vivo hair growth promoting effects on shaved back of C57BL/6 mice). Conditions: seven week-old female C57BL/6 mice in telogen, 100 ul applied once a day for 30 days, compared to vehicle control.
Design: species or system mouse
Method: Seven week-old, female C57BL/6 mice were housed in groups of 7 to 11 animals. Mice were in the telogen stage of the hair cycle when used, as indicated by the pinkish color of the skin.
The mice's hair of the region of back was shaved by a clipper. After a one day for adaptation 100 ul of [γ-hydroxy-methylleucine^4] cyclosporin A was applied on the shaved portion once a day for a period of 30 days. After determining the degree of hair growth by the naked eye, the results were photographed. […] In contrast, animals treated with the derivatives (the 11 derivatives mentioned in REFERENCE EXAMPLES 6 to 11) were almost at the level of the control group, having virtually no effects (data not shown).
The test expanded to the derivatives modified on No. 4 amino acid, methylleucine. The results of the hair growth-stimulating effects on the derivatives in which the original No. 4 amino acid, methylleucine, is substituted with the similarly structured methylisoleucine, methylvaline, leucine, isoleucine, methylalanine (REFERENCE EXAMPLES 1 to 5) are represented in FIG. 17 to FIG. 23, wherein the hair growth-stimulating effects of […], [methylvaline^4] (FIG. 20), [leucine^4] (FIG. 21), [isoleucine^4] (FIG. 22), [methylalanine^4]

| Substance | degree of hair growth (hair growth promoting effect) by the naked eye, photographed |
| --- | --- |
| [MeVal^4] cyclosporin A [[methylvaline^4]] | much lesser than cyclosporin A |
| [Leu^4] cyclosporin A [[leucine^4]] | much lesser than cyclosporin A |
| [methylisoleucine^4] cyclosporin A [[methylleucine^4]] | much lesser than cyclosporin A |
| [MeAla^4] cyclosporin A [[methylalanine^4]] | much lesser than cyclosporin A |
| [Ile^4] cyclosporin A [[isoleucine^4]] | much lesser than cyclosporin A |

— patent US6521595B1, “Nonimmunosuppressive [γ-hydroxy-methylleucine4] cyclosporin A, hair growth stimulator and external composition for skin using the same” (LG Chemical, Ltd., priority 1999, dated 2003)
